Test results published in paper PMC10012049, “Synthesis, α-mannosidase inhibition studies and molecular modeling of 1,4-imino-ᴅ-lyxitols and their C-5-altered N-arylalkyl derivatives” (Beilstein Journal of Organic Chemistry, 2023).

How the values were obtained:
Format in all cases: biochemical
[1] = biological target: T1, JBMan (Jack bean α-mannosidase) (Canavalia ensiformis, UniProt C0HJB3); experiment: α-mannosidase inhibition assay with pNP-Man substrate, JBMan; details: for IC50: 2 mM pNP-Man, pH 5.0, 37 °C; for Ki: Dixon plots, pNP-Man 0.5-4 mM, pH 5.0
T1 construct: purchased Sigma
T1 sequence (C0HJB3 1-981): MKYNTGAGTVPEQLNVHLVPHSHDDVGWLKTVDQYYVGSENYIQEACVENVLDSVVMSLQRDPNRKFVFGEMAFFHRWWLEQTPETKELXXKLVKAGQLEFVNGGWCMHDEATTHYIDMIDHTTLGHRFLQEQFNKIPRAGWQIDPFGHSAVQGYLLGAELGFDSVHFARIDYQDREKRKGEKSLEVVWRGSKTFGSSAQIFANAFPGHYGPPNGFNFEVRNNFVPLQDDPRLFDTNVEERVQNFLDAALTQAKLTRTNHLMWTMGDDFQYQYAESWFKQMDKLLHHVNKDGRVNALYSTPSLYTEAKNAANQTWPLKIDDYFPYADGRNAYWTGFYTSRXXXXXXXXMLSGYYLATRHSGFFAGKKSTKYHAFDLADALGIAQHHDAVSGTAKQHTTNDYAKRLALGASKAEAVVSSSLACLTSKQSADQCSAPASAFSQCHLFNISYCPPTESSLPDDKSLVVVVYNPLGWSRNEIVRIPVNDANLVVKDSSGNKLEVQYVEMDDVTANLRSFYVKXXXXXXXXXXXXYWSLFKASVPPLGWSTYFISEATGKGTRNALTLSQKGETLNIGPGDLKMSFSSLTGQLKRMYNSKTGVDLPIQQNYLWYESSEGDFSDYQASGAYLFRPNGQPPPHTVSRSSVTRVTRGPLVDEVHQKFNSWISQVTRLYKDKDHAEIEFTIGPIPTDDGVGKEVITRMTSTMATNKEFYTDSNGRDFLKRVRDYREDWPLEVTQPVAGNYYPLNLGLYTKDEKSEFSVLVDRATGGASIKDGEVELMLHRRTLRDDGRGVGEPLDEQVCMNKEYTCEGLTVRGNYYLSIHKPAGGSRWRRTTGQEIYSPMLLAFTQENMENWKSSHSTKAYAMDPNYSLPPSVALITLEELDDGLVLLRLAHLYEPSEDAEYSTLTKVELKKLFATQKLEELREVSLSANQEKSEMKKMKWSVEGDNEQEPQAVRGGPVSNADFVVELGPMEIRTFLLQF
Source text: (§1) The enzymes screened included two Golgi types (GMIIb and AMAN-2) and two lysosomal types (LManII and JBMan) (Table 1).
(§2) Recombinant soluble forms of Drosophila melanogaster Golgi (GMIIb) and lysosomal (LManII) α-mannosidases as well as Caenorhabditis elegans Golgi α-mannosidase AMAN-2 were produced in Pichia pastoris and enriched by ammonium sulfate precipitation or nickel chelation chromatography as previously described. The α-mannosidase from Canavalia ensiformis (JBMan) was purchased from Sigma. […]
(§3) GMIIb was assayed in the […]
(§4) presence of 0.5 mM CoCl2.
(§5) The lyophilized derivatives used in the assay were dissolved in DMSO to the final concentration 50 mM and further diluted to a desired concentration in water. These derivatives were preincubated with the enzyme in the buffer for 5 min at rt and the reaction was started by addition of the substrate. The reactions were terminated with two volumes (0.1 mL) of 0.5 M sodium carbonate and the production of p-nitrophenol was measured at 405 nm using a multimode reader Mithras LB943 (Berthold Technologies). The average or representative result of three independent experiments made in duplicate is presented.

[2] = biological target: LManII (lysosomal α-mannosidase) (Drosophila melanogaster, UniProt Q9VKV1); experiment: α-mannosidase inhibition assay with pNP-Man substrate, LManII; details: for IC50: 2 mM pNP-Man, pH 5.2, 37 °C, read-out: IC50 LManII; for Ki: Dixon plots, pNP-Man 0.5-4 mM, pH 5.2
Source text: as §1, §2, §3, §4, §5

[3] = biological target: GMIIb (Golgi α-mannosidase) (Drosophila melanogaster, UniProt Q9VF33); experiment: α-mannosidase inhibition assay with pNP-Man substrate, GMIIb; details: for IC50: 2 mM pNP-Man, pH 6.0, 0.5 mM CoCl2, 37 °C, read-out: IC50 GMIIb; for Ki: Dixon plots, pNP-Man 0.5-4 mM, pH 6.0
Source text: as §1, §2, §3, §4, §5

[4] = biological target: T2, AMAN-2 (Golgi α-mannosidase II) (Caenorhabditis elegans, UniProt Q2PJ74); experiment: α-mannosidase inhibition assay with pNP-Man substrate, AMAN-2; details: for IC50: 2 mM pNP-Man, pH 6.0, 37 °C, read-out: IC50 AMAN-2; for Selectivity index, SI [Ki (JBMan)/Ki (AMAN-2)]: ratio of Ki values; for times more potent toward AMAN-2 than DIM: relative to DIM
Source text: as §1
Recombinant soluble forms of Drosophila melanogaster Golgi (GMIIb) and lysosomal (LManII) α-mannosidases as well as Caenorhabditis elegans Golgi α-mannosidase AMAN-2 were produced in Pichia pastoris and enriched by ammonium sulfate precipitation or nickel chelation chromatography as previously described. The α-mannosidase from Canavalia ensiformis (JBMan) was purchased from Sigma. The mannosidase activity of these enzyme preparations were measured using p-nitrophenyl α -D-mannopyranoside ( pNP-Man; Sigma; 100 mM stock in dimethylsulfoxide) as a substrate at 2 mM final concentration in 50 mM acetate buffer of the relevant previously defined optimal pH, GMIIb and AMAN -2 at pH 6.0, LManII at pH 5.2 , and JBMan at pH 5.0) and 0.5 μL of the enzyme (0.05 µg of protein for JBMan), in a total volume of 50 μL for 1–2 h at 37 °C. GMIIb was assayed in the presence of 0.5 mM CoCl2.
as §5

[5] = biological target: T2, AMAN-2 (Golgi α-mannosidase II); experiment: as above; details: Dixon plots, pNP-Man 0.5-4 mM, pH 6.0

LManII (lysosomal α-mannosidase), sequence (Q9VKV1 entry or part of it): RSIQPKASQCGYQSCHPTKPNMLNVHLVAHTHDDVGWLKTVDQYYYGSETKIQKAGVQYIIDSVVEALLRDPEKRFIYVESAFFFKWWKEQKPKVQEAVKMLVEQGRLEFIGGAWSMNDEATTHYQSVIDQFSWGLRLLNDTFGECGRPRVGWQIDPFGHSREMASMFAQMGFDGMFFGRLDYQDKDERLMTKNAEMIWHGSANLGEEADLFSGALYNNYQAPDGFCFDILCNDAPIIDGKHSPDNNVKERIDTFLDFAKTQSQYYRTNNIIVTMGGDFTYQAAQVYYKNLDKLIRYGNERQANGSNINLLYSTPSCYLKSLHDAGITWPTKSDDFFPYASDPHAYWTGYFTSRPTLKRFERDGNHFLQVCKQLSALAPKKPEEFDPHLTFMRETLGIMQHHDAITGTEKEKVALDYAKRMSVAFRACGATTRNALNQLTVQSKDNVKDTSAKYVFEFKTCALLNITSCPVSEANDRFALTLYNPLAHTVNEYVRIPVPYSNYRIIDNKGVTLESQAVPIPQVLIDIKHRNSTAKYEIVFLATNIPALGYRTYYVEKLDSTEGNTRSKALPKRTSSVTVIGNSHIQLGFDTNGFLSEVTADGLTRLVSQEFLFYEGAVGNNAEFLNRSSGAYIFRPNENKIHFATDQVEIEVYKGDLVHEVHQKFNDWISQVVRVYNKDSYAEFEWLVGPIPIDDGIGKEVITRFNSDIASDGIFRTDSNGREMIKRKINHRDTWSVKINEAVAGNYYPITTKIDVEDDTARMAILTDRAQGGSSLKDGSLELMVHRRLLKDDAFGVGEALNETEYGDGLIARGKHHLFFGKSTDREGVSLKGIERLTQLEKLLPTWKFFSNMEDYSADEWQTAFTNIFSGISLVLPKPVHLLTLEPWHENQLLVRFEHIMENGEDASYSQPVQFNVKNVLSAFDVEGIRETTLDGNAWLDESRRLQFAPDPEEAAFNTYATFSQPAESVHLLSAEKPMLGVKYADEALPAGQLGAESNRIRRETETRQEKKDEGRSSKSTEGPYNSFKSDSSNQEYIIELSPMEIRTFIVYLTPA
GMIIb (Golgi α-mannosidase), sequence (Q9VF33 entry or part of it): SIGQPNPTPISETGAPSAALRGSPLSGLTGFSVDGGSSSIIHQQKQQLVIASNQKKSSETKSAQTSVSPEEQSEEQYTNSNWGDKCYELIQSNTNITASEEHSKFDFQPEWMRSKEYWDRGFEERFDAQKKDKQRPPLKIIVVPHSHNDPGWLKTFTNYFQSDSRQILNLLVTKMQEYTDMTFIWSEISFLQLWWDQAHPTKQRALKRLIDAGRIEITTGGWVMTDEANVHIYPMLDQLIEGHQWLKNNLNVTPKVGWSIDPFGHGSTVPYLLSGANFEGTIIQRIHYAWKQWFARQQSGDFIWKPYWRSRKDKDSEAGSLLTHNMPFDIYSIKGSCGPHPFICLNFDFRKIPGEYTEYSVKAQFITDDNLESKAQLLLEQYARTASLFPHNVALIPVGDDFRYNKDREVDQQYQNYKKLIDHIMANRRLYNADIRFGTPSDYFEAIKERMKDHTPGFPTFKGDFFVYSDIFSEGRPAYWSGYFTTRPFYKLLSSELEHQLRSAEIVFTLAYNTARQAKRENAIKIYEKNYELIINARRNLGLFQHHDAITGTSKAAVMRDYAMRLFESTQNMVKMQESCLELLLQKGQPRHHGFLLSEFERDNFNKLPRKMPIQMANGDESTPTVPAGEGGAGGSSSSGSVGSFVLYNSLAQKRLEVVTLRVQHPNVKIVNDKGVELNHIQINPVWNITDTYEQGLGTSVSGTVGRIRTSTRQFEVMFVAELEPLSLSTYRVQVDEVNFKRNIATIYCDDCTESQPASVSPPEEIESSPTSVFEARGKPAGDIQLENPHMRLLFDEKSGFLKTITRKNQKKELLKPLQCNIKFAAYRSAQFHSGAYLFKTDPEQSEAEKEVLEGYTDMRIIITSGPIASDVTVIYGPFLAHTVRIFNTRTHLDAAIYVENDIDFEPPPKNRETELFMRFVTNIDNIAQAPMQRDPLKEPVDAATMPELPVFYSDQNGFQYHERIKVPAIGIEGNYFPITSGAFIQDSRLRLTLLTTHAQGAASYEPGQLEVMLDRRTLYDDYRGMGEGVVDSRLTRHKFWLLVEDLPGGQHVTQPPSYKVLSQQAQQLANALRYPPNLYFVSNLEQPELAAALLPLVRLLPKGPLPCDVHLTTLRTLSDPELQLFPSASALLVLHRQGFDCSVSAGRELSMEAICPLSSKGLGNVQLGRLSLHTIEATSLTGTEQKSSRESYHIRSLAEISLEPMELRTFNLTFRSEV
T2 sequence (Q2PJ74 entry or part of it): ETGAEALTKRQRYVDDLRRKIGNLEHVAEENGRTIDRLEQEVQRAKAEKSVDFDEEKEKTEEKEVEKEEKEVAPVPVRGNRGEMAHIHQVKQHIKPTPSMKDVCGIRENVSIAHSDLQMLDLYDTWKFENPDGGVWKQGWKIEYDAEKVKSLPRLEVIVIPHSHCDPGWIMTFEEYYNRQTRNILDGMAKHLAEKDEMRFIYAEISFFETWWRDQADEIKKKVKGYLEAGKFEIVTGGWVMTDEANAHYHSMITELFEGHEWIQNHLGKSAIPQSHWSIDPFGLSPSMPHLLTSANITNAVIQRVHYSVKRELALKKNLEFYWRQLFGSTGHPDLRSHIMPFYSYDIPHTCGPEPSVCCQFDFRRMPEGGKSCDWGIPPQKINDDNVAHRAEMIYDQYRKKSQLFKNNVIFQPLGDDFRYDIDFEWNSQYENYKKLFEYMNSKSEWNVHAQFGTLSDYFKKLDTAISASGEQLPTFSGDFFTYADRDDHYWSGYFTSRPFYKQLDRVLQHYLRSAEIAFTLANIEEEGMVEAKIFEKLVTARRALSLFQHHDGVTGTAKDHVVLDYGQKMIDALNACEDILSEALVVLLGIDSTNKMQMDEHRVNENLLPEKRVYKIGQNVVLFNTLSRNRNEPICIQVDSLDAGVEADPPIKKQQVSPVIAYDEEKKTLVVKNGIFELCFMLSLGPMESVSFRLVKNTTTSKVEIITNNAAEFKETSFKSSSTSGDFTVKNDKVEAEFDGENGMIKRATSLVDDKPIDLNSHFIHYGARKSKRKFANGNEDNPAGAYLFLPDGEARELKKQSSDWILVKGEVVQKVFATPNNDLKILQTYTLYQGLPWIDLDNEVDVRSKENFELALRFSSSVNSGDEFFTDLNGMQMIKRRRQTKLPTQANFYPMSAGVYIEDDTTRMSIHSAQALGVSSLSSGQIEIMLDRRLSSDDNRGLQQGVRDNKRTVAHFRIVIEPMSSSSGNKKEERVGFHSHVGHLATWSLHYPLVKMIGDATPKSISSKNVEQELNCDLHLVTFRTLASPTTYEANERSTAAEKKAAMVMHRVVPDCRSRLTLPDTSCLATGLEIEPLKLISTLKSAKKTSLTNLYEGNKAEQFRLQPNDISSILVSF

Compound: C[C@@H]1[C@H](O)[C@H](O)CN1Cc1ccc2ccccc2c1 [compound 9]
- IC50 [1]: > 4000 µM
- IC50 [2]: > 4000 µM
- IC50 [3]: 310 ± 22 µM
- IC50 [4]: 605 ± 35 µM

Compound: C[C@@H]1[C@H](O)[C@H](O)CN1Cc1ccccc1 [compound 7]
- IC50 [1]: > 4000 µM
- IC50 [2]: > 4000 µM
- IC50 [3]: 245 ± 35 µM
- IC50 [4]: 975 ± 25 µM

Compound: C[C@@H](O)[C@H]1NC[C@@H](O)[C@H]1O [compound 29, 6-deoxy-DIM]
- IC50 [1]: 0.32 ± 0.11 µM
- Ki [1]: 0.12 µM
- IC50 [2]: 0.82 ± 0.19 µM
- Ki [2]: 0.38 µM
- IC50 [3]: 0.12 ± 0.02 µM
- Ki [3]: 65 nM
- Ki [5]: 0.19 µM
- IC50 [4]: 0.24 ± 0.05 µM
- Selectivity index, SI [Ki (JBMan)/Ki (AMAN-2)] [4]: 0.6
- times more potent toward AMAN-2 than DIM [4]: ~4 times
- times more potent toward AMAN-2 than DIM ([4]; listed as 6-deoxy-DIM): 3.5 times

Compound: C[C@@H](O)[C@@H]1[C@H](O)[C@H](O)CN1Cc1ccccc1 [compound 26]
- IC50 [1]: 298 ± 30 µM
- Ki [1]: 80 µM
- IC50 [2]: 505 ± 57 µM
- Ki [2]: 270 µM
- IC50 [3]: 33 ± 3.7 µM
- Ki [3]: 16200 nM
- Ki [5]: 58 µM
- IC50 [4]: 115 ± 18 µM
- Selectivity index, SI [Ki (JBMan)/Ki (AMAN-2)] [4]: 1.4

Compound: C[C@@H](O)[C@@H]1[C@H](O)[C@H](O)CN1Cc1ccc2ccccc2c1 [compound 28]
- IC50 [1]: 78 ± 16 µM
- Ki [1]: 44 µM
- IC50 [2]: 118 ± 10 µM
- Ki [2]: 98 µM
- IC50 [3]: 13.5 ± 5.5 µM
- Ki [3]: 5200 nM
- Ki [5]: 18 µM
- IC50 [4]: 22 ± 4 µM
- Selectivity index, SI [Ki (JBMan)/Ki (AMAN-2)] [4]: 2.4

Compound: C[C@H](O)[C@@H]1[C@H](O)[C@H](O)CN1Cc1ccccc1 [compound 17]
- IC50 [1]: > 4000 µM
- IC50 [2]: > 4000 µM
- IC50 [3]: 335 ± 37 µM
- IC50 [4]: 990 ± 10 µM

Compound: OC[C@@H](O)[C@H]1NC[C@@H](O)[C@H]1O [DIM, 1,4-dideoxy-1,4-imino-ᴅ-mannitol, reference compound]
- IC50 [1]: 0.72 ± 0.03 µM
- Ki [1]: 0.38 µM
- IC50 [2]: 2.55 ± 0.1 µM
- Ki [2]: 1.95 µM
- IC50 [3]: 0.19 ± 0.04 µM
- Ki [3]: 130 nM
- Ki [5]: 0.68 µM
- IC50 [4]: 0.81 ± 0.03 µM
- Selectivity index, SI [Ki (JBMan)/Ki (AMAN-2)] [4]: 0.6

Compound: C[C@H](O)[C@@H]1[C@H](O)[C@H](O)CN1Cc1ccc(I)cc1 [compound 18]
- IC50 [1]: > 4000 µM
- IC50 [2]: > 4000 µM
- IC50 [3]: 170 ± 10 µM
- IC50 [4]: 205 ± 5 µM
